Reference: patent US20260285850A1, “SUBSTITUTED OXAZOLIDINONES AND IMIDAZOLINONES AS HERBICIDES” (FMC CORPORATION, priority 2023, published 2026)

What was measured:
Assay type in all cases: in vivo
[1] = system: blackgrass (Alopecurus myosuroides); assay: Test A postemergence application, visual injury rating 0-100
Outline: (§1)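 Seeds sown in loam-sand blend got a preemergence directed soil spray, or emerged plants (2-10 cm, one- to two-leaf) got a postemergence spray, of compound in non-phytotoxic solvent with surfactant. After 10 days in greenhouse, injury rated visually versus untreated controls on a 0 (no effect) to 100 (complete control) scale.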

[2] = system: ryegrass, Italian (italian ryegrass, Lolium multiflorum); assay: as above
Outline: as §1

[3] = system: ragweed (common ragweed, Ambrosia artemisiifolia); assay: as above
Outline: as §1

[4] = system: oat, wild (wild oat, Avena fatua); assay: as above
Outline: as §1

[5] = system: horseweed (Erigeron canadensis); assay: as above
Outline: as §1

[6] = system: galium (catchweed bedstraw, Galium aparine); assay: as above
Outline: as §1

soybean (Glycine max) [7] = assay: as above
Outline: as §1

[8] = system: palmer (palmer amaranth, palmer pigweed, Amaranthus palmeri); assay: as above
Outline: as §1

kochia (Bassia scoparia) [9] = assay: as above
Outline: as §1

[10] = system: wheat (Triticum aestivum); assay: as above
Outline: as §1

[11] = system: barnyardgrass (Echinochloa crus-galli); assay: as above
Outline: as §1

corn (Zea mays) [12] = assay: as above
Outline: as §1

[13] = system: green foxtail (Setaria viridis); assay: as above
Outline: as §1

[14] = system: blackgrass (Alopecurus myosuroides); assay: Test A preemergence soil spray, visual injury rating 0-100; conditions: 10 days
Outline: as §1

[15] = system: ryegrass, Italian (italian ryegrass, Lolium multiflorum); assay: as above; conditions: 10 days
Outline: as §1

[16] = system: ragweed (common ragweed, Ambrosia artemisiifolia); assay: as above; conditions: 10 days
Outline: as §1

[17] = system: oat, wild (wild oat, Avena fatua); assay: as above; conditions: 10 days
Outline: as §1

soybean (Glycine max) [18] = assay: as above; conditions: 10 days
Outline: as §1

[19] = system: palmer (palmer amaranth, palmer pigweed, Amaranthus palmeri); assay: as above; conditions: 10 days
Outline: as §1

kochia (Bassia scoparia) [20] = assay: as above; conditions: 16 g ai/ha, 0 to 100 scale, 10 days
Outline: as §1

[21] = system: wheat (Triticum aestivum); assay: as above; conditions: 10 days
Outline: as §1

[22] = system: barnyardgrass (Echinochloa crus-galli); assay: as above; conditions: 10 days
Outline: as §1

corn (Zea mays) [23] = assay: as above; conditions: 10 days
Outline: as §1

[24] = system: green foxtail (Setaria viridis); assay: as above; conditions: 10 days
Outline: as §1

[25] = system: ducksalad (Heteranthera limosa); assay: Test B flooded paddy test, visual plant response rating 0-100; conditions: 250 g ai/ha, Flood, applied to paddy water, evaluated after 13 days
Outline: (§2)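 Compounds applied to standing paddy water (3 cm above soil, maintained for the test duration) on 2-leaf-stage plants; visual rating vs controls at 13 days, greenhouse.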

rice (Oryza sativa) = assay: as above; conditions: 250 g ai/ha, Flood, applied to paddy water, evaluated after 13 days
Outline: as §2

[26] = system: sedge, umbrella (small-flower umbrella sedge, Cyperus difformis); assay: as above; conditions: 250 g ai/ha, Flood, applied to paddy water, evaluated after 13 days
Outline: as §2

[27] = system: barnyardgrass (Echinochloa crusgalli); assay: as above; conditions: 250 g ai/ha, Flood, applied to paddy water, evaluated after 13 days
Outline: as §2

[28] = 62 g ai/ha, postemergence, 10 days, 0 = no effect, 100 = complete control
[29] = Postemergence, 16 g ai/ha, greenhouse 10 days, 0 no effect, 100 complete control
[30] = 62 g ai/ha, 0 = no effect, 100 = complete control

SMILES: Cc1cc(C)cc(N2CC(C)(C(=O)NC3C=CC(C(=O)O)C3)OC2=O)c1 (stereo not drawn) [Compound 126]
- Blackgrass plant response rating (0-100) [1, 28]: 90
- Blackgrass plant response rating (0 to 100 scale) [1, 29]: 60
- Ryegrass, Italian plant response rating (0-100) [2, 28]: 60
- Ryegrass, Italian plant response rating (0 to 100 scale) [2, 29]: 30
- Ragweed plant response rating (0-100) [3, 28]: 30
- Ragweed plant response rating (0 to 100 scale) [3, 29]: 0
- Oat, Wild plant response rating (0-100) [4, 28]: 90
- Oat, Wild plant response rating (0 to 100 scale) [4, 29]: 30
- Horseweed plant response rating (0-100) [5, 28]: 20
- Horseweed plant response rating (0 to 100 scale) [5, 29]: 0
- Galium plant response rating (0-100) [6, 28]: 80
- Galium plant response rating (0 to 100 scale) [6, 29]: 70
- Soybean plant response rating (0-100) (soybean (Glycine max) [7]; [28]): 60
- Soybean plant response rating (0 to 100 scale) (soybean (Glycine max) [7]; [29]): 0
- Pigweed, Palmer plant response rating (0-100) [8, 28]: 30
- Pigweed, Palmer plant response rating (0 to 100 scale) [8, 29]: 10
- Kochia plant response rating (0-100) (kochia (Bassia scoparia) [9]; [28]): 30
- Kochia plant response rating (0 to 100 scale) (kochia (Bassia scoparia) [9]; [29]): 0
- Wheat plant response rating (0-100) [10, 28]: 90
- Wheat plant response rating (0 to 100 scale) [10, 29]: 30
- Barnyardgrass plant response rating (0-100) [11, 28]: 90
- Barnyardgrass plant response rating (0 to 100 scale) [11, 29]: 50
- Corn plant response rating (0-100) (corn (Zea mays) [12]; [28]): 100
- Corn plant response rating (0 to 100 scale) (corn (Zea mays) [12]; [29]): 20
- Foxtail, Green plant response rating (0-100) [13, 28]: 30
- Foxtail, Green plant response rating (0 to 100 scale) [13, 29]: 0
- Blackgrass plant response rating ([14]; 16 g ai/ha, 0 to 100 scale): 0
- Blackgrass plant response rating (0-100) [14, 30]: 40
- Ryegrass, Italian plant response rating ([15]; 16 g ai/ha, 0 to 100 scale): 0
- Ryegrass, Italian plant response rating (0-100) [15, 30]: 40
- Ragweed plant response rating ([16]; 16 g ai/ha, 0 to 100 scale): 0
- Ragweed plant response rating (0-100) [16, 30]: 0
- Oat, Wild plant response rating ([17]; 16 g ai/ha, 0 to 100 scale): 0
- Oat, Wild plant response rating (0-100) [17, 30]: 30
- Soybean plant response rating (soybean (Glycine max) [18]; 16 g ai/ha, 0 to 100 scale): 0
- Soybean plant response rating (0-100) (soybean (Glycine max) [18]; [30]): 0
- Pigweed, Palmer plant response rating ([19]; 16 g ai/ha, 0 to 100 scale): 20
- Pigweed, Palmer plant response rating (0-100) [19, 30]: 50
- Kochia plant response rating (kochia (Bassia scoparia) [20]): 0
- Wheat plant response rating ([21]; 16 g ai/ha, 0 to 100 scale): 20
- Wheat plant response rating (0-100) [21, 30]: 90
- Barnyardgrass plant response rating ([22]; 16 g ai/ha, 0 to 100 scale): 10
- Barnyardgrass plant response rating (0-100) [22, 30]: 90
- Corn plant response rating (corn (Zea mays) [23]; 16 g ai/ha, 0 to 100 scale): 0
- Corn plant response rating (0-100) (corn (Zea mays) [23]; [30]): 40
- Foxtail, Green plant response rating ([24]; 16 g ai/ha, 0 to 100 scale): 0
- Foxtail, Green plant response rating (0-100) [24, 30]: 10
- Plant response rating, Ducksalad (0 to 100 scale, 0 is no effect and 100 is complete control) [25]: 55
- Plant response rating, Rice (0 to 100 scale, 0 is no effect and 100 is complete control) (rice (Oryza sativa)): 5
- Plant response rating, Sedge, Umbrella (0 to 100 scale, 0 is no effect and 100 is complete control) [26]: 35
- Plant response rating, Barnyardgrass (0 to 100 scale, 0 is no effect and 100 is complete control) [27]: 25
